Some results are limits rather than exact numbers.

Chain of HCV RNA-dependent RNA polymerase (NS5B) (P26663 2420-3010): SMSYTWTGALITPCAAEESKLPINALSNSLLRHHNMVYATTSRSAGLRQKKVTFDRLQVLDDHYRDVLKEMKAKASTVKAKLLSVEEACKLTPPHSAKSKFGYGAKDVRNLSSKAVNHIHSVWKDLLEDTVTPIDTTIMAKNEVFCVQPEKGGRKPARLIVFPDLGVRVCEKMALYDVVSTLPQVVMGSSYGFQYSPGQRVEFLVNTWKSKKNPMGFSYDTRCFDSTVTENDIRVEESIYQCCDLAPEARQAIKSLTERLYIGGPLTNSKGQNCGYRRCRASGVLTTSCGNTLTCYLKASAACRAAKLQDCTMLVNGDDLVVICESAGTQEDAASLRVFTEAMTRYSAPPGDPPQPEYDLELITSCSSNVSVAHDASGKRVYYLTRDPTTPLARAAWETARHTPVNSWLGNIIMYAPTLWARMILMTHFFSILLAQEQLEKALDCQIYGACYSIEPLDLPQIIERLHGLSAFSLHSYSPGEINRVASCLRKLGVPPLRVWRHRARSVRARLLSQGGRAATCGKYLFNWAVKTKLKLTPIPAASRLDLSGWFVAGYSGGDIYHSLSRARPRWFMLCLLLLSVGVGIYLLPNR

For the assay, the target named is HCV RNA-dependent RNA polymerase (NS5B) (Hepatitis C virus genotype 1b (isolate BK) (HCV), UniProt P26663). Kind of assay: RNA-Dependent RNA HCV NS5B (polymerase) Assay and IC50 Determination. It counts as biochemical. Conditions: purified HCV NS5B polymerase, polyA:U16 substrate, 32P-UTP incorporation; read-out: IC50. On the procedure:
RNA-Dependent RNA HCV NS5B (polymerase) Assay and IC50 Determination.
The reaction mixtures consisted of 50 mM Hepes-KOH, pH 7.5, 5 mM MgCl2, 5 mM DTT, 2% glycerol, 0.01% Triton® X-100, 0.5 uM polyA:U16 substrate, purified HCV RNA-dependent RNA polymerase, 10 μM UTP, and ^32P-UTP (Perkin Elmer). The reaction mixtures incubated at 30° C. for 60 minutes, and then filtered through Zeta probe membrane (BioRad). The filter was washed with 5×SSC (75 mM sodium citrate, pH 7 and 750 mM NaCl), and the radiolabeled RNA products were quantitated by microbeta (Perkin Elmer). For IC50 determination, different concentrations of inhibitors were added to the polymerase reaction mixtures, and incubated at 37° C. for 60 minutes. IC50 values were determined using GraFit (Erithaus software).
Table 1 presents IC50 data obtained using the biochemical assay to test representative compounds. Data are presented as follows: “+++” means <0.1 μM; “++” means ≥0.1 μM but <1.0 μM; “+” means ≥1.0 μM.
The IC50 is the concentration that gives 50% inhibition. Regarding `CNC(=O)c1c(-c2ccc(F)cc2)oc2cc(N(CCCOCCCc3ccc(C(=O)OC)cc3)S(C)(=O)=O)c(C3CC3)cc12` [Compound 13-7B, 4-[3-(3-{[5-Cyclopropyl-2-(4-fluoro-phenyl)-3-methylcarbamoyl-benzofuran-6-yl]-methanesulfonyl-amino}-propoxy)-propyl]-benzoic Acid Methyl Ester], the half-maximal inhibitory concentration (IC50) was 0.1 to 1 µM.
As for `CNC(=O)c1c(-c2ccc(F)cc2)oc2cc(N(CCOCCOCc3ccc(C(=O)OCc4ccccc4)cc3)S(C)(=O)=O)c(C3CC3)cc12` [Compound 06-8B7, 4-[2-(2-{[5-Cyclopropyl-2-(4-fluoro-phenyl)-3-methylcarbamoyl-benzofuran-6-yl]-methanesulfonyl-amino}-ethoxy)-ethoxymethyl]-benzoic Acid Benzyl Ester], the figure is 0.1 to 1 µM; as for `CNC(=O)c1c(-c2ccc(F)cc2)oc2cc(N(CCOCCOCc3ccccc3C(=O)OC)S(C)(=O)=O)c(C3CC3)cc12` [Compound 06-6A, 2-[2-(2-{[5-Cyclopropyl-2-(4-fluoro-phenyl)-3-methylcarbamoyl-benzofuran-6-yl]-methanesulfonyl-amino}-ethoxy)-ethoxymethyl]-benzoic Acid Methyl Ester], 0.1 to 1 µM.
As for `CCOC(=O)c1ccc(OCCOCCOCCN(c2cc3oc(-c4ccc(F)cc4)c(C(=O)NC)c3cc2C2CC2)S(C)(=O)=O)cc1` [Compound 14-6C, 4-{2-[2-(2-{[5-Cyclopropyl-2-(4-fluoro-phenyl)-3-methylcarbamoyl-benzofuran-6-yl]-methanesulfonyl-amino}-ethoxy)-ethoxy]-ethoxy}-benzoic Acid Ethyl Ester], the figure is above 1 µM; as for `CNC(=O)c1c(-c2ccc(F)cc2)oc2cc(N(CCOCCOCc3ccc(C(=O)O)c(N)c3)S(C)(=O)=O)c(C3CC3)cc12` [Compound 29-10, 2-Amino-4-[2-(2-{[5-cyclopropyl-2-(4-fluoro-phenyl)-3-methylcarbamoyl-benzofuran-6-yl]-methanesulfonyl-amino}-ethoxy)-ethoxymethyl]-benzoic Acid], 0.1 to 1 µM.
As for `CNC(=O)c1c(-c2ccc(F)cc2)oc2cc(N(CCOCCOCCOCCCc3cccc(C(=O)CC(=O)C(=O)O)c3)S(C)(=O)=O)c(C3CC3)cc12` [Compound 30-10, 4-[3-(3-{2-[2-(2-{[5-Cyclopropyl-2-(4-fluoro-phenyl)-3-methylcarbamoyl-benzofuran-6-yl]-methanesulfonyl-amino}-ethoxy)-ethoxy]-ethoxy}-propyl)-phenyl]-2,4-dioxo-butyric acid], the figure is above 1 µM; as for `CNC(=O)c1c(-c2ccc(F)cc2)oc2cc(N(CCOCCOCCOCC(C)=O)S(C)(=O)=O)c(C3CC3)cc12` [Compound 30-1, 5-Cyclopropyl-2-(4-fluoro-phenyl)-6-[methanesulfonyl-(2-{2-[2-(2-oxo-propoxy)-ethoxy]-ethoxy}-ethyl)-amino]-benzofuran-3-carboxylic acid methylamide], above 1 µM; as for `CNC(=O)c1c(-c2ccc(F)cc2)oc2cc(N(CCOCCOCc3ccc(F)c(C(=O)NO)c3)S(C)(=O)=O)c(C3CC3)cc12` [Compound 17A-8B, 5-Cyclopropyl-6-({2-[2-(4-fluoro-3-hydroxycarbamoyl-benzyloxy)-ethoxy]-ethyl}-methanesulfonyl-amino)-2-(4-fluoro-phenyl)-benzofuran-3-carboxylic Acid Methylamide], above 1 µM.
On to `CNC(=O)c1c(-c2ccc(F)cc2)oc2cc(N(CCOCCOCCOc3ccc(C(=O)O)cc3)S(C)(=O)=O)c(C3CC3)cc12` [Compound 14-7C, 4-{2-[2-(2-{[5-Cyclopropyl-2-(4-fluoro-phenyl)-3-methylcarbamoyl-benzofuran-6-yl]-methanesulfonyl-amino}-ethoxy)-ethoxy]-ethoxy}-benzoic Acid], for which the IC50 is 0.1 to 1 µM.
As for `CNC(=O)c1c(-c2ccc(F)cc2)oc2cc(N(CCOCCOCCOCC(N)=O)S(C)(=O)=O)c(C3CC3)cc12` [Compound 23-7A, 6-({2-[2-(2-Carbamoylmethoxy-ethoxy)-ethoxy]-ethyl}-methanesulfonyl-amino)-5-cyclopropyl-2-(4-fluoro-phenyl)-benzofuran-3-carboxylic Acid Methylamide], the figure is 0.1 to 1 µM; as for `CNC(=O)c1c(-c2ccc(F)cc2)oc2cc(N(CCOCCOCCCc3ccc(C(=O)O)cc3)S(C)(=O)=O)c(C3CC3)cc12` [Compound 12-7C, 4-{3-[2-(2-{[5-Cyclopropyl-2-(4-fluoro-phenyl)-3-methylcarbamoyl-benzofuran-6-yl]-methanesulfonyl-amino}-ethoxy)-ethoxy]-propyl}-benzoic Acid], 0.1 to 1 µM; as for `CNC(=O)c1c(-c2ccc(F)cc2)oc2cc(N(CCOCCOCCOCc3cccc(C(=O)OC)c3)S(C)(=O)=O)c(C3CC3)cc12` [Compound 06-6F, 3-{2-[2-(2-{[5-Cyclopropyl-2-(4-fluoro-phenyl)-3-methylcarbamoyl-benzofuran-6-yl]-methanesulfonyl-amino}-ethoxy)-ethoxy]-ethoxymethyl}-benzoic acid methyl ester], above 1 µM.
As for `CNC(=O)c1c(-c2ccc(F)cc2)oc2cc(N(CCOCCOCCOC(C)(C)C(=O)O)S(C)(=O)=O)c(C3CC3)cc12` [Compound 26-7B, 2-{2-[2-(2-{[5-Cyclopropyl-2-(4-fluoro-phenyl)-3-methylcarbamoyl-benzofuran-6-yl]-methanesulfonyl-amino}-ethoxy)-ethoxy]-ethoxy}-2-methyl-propionic Acid], the figure is 0.1 to 1 µM.
With `CNC(=O)c1c(-c2ccc(F)cc2)oc2cc(N(CCOCCOCCOCCC(=O)O)S(C)(=O)=O)c(C3CC3)cc12` [Compound 24-4, 3-{2-[2-(2-{[5-Cyclopropyl-2-(4-fluoro-phenyl)-3-methylcarbamoyl-benzofuran-6-yl]-methanesulfonyl-amino}-ethoxy)-ethoxy]-ethoxy}-propionic Acid], the IC50 lay within 0.1 to 1 µM.
Next, `CCOC(=O)COC(=O)c1ccc(COCCOCCN(c2cc3oc(-c4ccc(F)cc4)c(C(=O)NC)c3cc2C2CC2)S(C)(=O)=O)cc1` [Compound 06-8B8, 4-[2-(2-{[5-Cyclopropyl-2-(4-fluoro-phenyl)-3-methylcarbamoyl-benzofuran-6-yl]-methanesulfonyl-amino}-ethoxy)-ethoxymethyl]-benzoic Acid Ethoxycarbonylmethyl Ester]: 0.1 to 1 µM; `CNC(=O)c1c(-c2ccc(F)cc2)oc2cc(N(CCOCCOCCCc3cccc(C(=O)O)c3)S(C)(=O)=O)c(C3CC3)cc12` [Compound 12-7B, 3-{3-[2-(2-{[5-Cyclopropyl-2-(4-fluoro-phenyl)-3-methylcarbamoyl-benzofuran-6-yl]-methanesulfonyl-amino}-ethoxy)-ethoxy]-propyl}-benzoic Acid]: below 0.1 µM.
As for `CNC(=O)c1c(-c2ccc(F)cc2)oc2cc(N(CCOCCOCCOCCCCCc3cccc(C(=O)CC(=O)C(=O)O)c3)S(C)(=O)=O)c(C3CC3)cc12` [Compound 30-15, 4-[3-(5-{2-[2-(2-{[5-Cyclopropyl-2-(4-fluoro-phenyl)-3-methylcarbamoyl-benzofuran-6-yl]-methanesulfonyl-amino}-ethoxy)-ethoxy]-ethoxy}-pentyl)-phenyl]-2,4-dioxo-butyric acid], the figure is above 1 µM; as for `CNC(=O)c1c(-c2ccc(F)cc2)oc2cc(N(CCCOCCOCc3cccc(C(C)=O)c3)S(C)(=O)=O)c(C3CC3)cc12` [Compound 03-6A, 6-(N-(3-(2-((3-acetylbenzyl)-oxy)-ethoxy)-propyl)-methylsulfonamido)-5-cyclopropyl-2-(4-fluorophenyl)-N-methylbenzofuran-3-carboxamide], above 1 µM; as for `CNC(=O)c1c(-c2ccc(F)cc2)oc2cc(N(CC(=O)NCC(=O)NCCCC(C)C(=O)O)S(C)(=O)=O)c(C3CC3)cc12` (stereo not shown) [Compound 10-4B, 5-[2-(2-{[5-Cyclopropyl-2-(4-fluoro-phenyl)-3-methylcarbamoyl-benzofuran-6-yl]-methanesulfonyl-amino}-acetylamino)-acetylamino]-2-methyl-pentanoic Acid], above 1 µM.
With `CNC(=O)c1c(-c2ccc(F)cc2)oc2cc(N(CCOCCOCCOCCCCc3cccc(C(=O)CC(=O)C(=O)O)c3)S(C)(=O)=O)c(C3CC3)cc12` [Compound 30-16, 4-[3-(4-{2-[2-(2-{[5-Cyclopropyl-2-(4-fluoro-phenyl)-3-methylcarbamoyl-benzofuran-6-yl]-methanesulfonyl-amino}-ethoxy)-ethoxy]-ethoxy}-butyl)-phenyl]-2,4-dioxo-butyric acid], the IC50 is above 1 µM.
Next, `CNC(=O)c1c(-c2ccc(F)cc2)oc2cc(N(CCOCCOCCOCCOCc3cccc(C(=O)O)c3)S(C)(=O)=O)c(C3CC3)cc12` [Compound 30-4, 3-(2-{2-[2-(2-{[5-Cyclopropyl-2-(4-fluoro-phenyl)-3-methylcarbamoyl-benzofuran-6-yl]-methanesulfonyl-amino}-ethoxy)-ethoxy]-ethoxy}-ethoxymethyl)-benzoic acid]: above 1 µM.
`CNC(=O)c1c(-c2ccc(F)cc2)oc2cc(N(CCOCCOCc3ccc(C(=O)OC)cc3)S(C)(=O)=O)c(C3CC3)cc12` [Compound 06-6B, 4-[2-(2-{[5-Cyclopropyl-2-(4-fluoro-phenyl)-3-methylcarbamoyl-benzofuran-6-yl]-methanesulfonyl-amino}-ethoxy)-ethoxymethyl]-benzoic Acid Methyl Ester]: the concentration for half-maximal inhibition (IC50) was above 1 µM.

Source of the values: patent publication US10947210B2 (priority 2015, dated 2021).
